According to patent publication US5849735A, “Tricyclic benzazepine vasopressin antagonists” (American Cyanamid Company, priority 1995, dated 1998):

Tested on: vasopressin V2
Assay: Vasopressin Antidiuretic (V2) Response in Conscious Rats with Free Access to Water Drinking Before But Not During the Experiment
Type: in vivo, rat (Sprague-Dawley)
Conditions: N=2
Excerpt: Vasopressin Antidiuretic (V2) Response in Conscious Rats with Free Access to Water Drinking Before But Not During the Experiment Male or female normotensive Sprague-Dawley rats (Charles River Laboratories, Inc., Kingston, N.Y.) of 400-450 g of body weight were supplied with Laboratory Rodent Feed #5001 (PMI Feeds, Inc., Richmond, Ind.) and water ad libitum. On the day of test, rats were placed individually into metabolic cages equipped with stainless steel screens (to separate the feces from the urine) and funnels for collection of urine. Compounds, vehicle, or reference agent was given at various oral doses. During the test, rats were provided with no water or food. After dosing, urine was collected in graduated cylinders for four hours. Urine volume was measured. Urinary osmolality was determined using a Fiske One-Ten Osmometer (Fiske Associates, Norwood, Mass. 02062). An aliquot of each urine collection was analyzed for Na^+,K^+ and Cl^- using ion specific electrodes a in Beckman E3 (Electrolyte 3) analyzer. The vehicle used for testing compounds was 20% dimethylsulfoxide (DMSO) in 2.5% preboiled starch. Compounds were dissolved in DMSO and then diluted in 2.5% corn starch (final concentration of DMSO was 20%). All rats were orally dosed with this mixture at […], by gavage.

Row | SMILES | Osmolality (oral 10 mg/kg) | Urine Volume (oral 10 mg/kg) | Osmolality (oral 1 mg/kg) | Urine Volume (oral 1 mg/kg) | Osmolality (oral 3 mg/kg) | Urine Volume (oral 3 mg/kg)
1 | O=C(Nc1ccc(C(=O)N2Cc3ccccc3Oc3ccccc32)c(Cl)c1)c1ccccc1-c1ccccc1 [Example 47, N-[4-(Dibenz[b,f][1,4]oxazepin-10(11H)-ylcarbonyl)-3-chlorophenyl][1,1'biphenyl]-2-carboxamide] | 394 MOsm/kg | 22.0 ml/4 hrs | – | – | – | –
2 | O=C(Nc1ccc(C(=O)N2Cc3cccnc3Oc3ccccc32)cn1)c1ccccc1-c1ccccc1 [Example 66, N-[5-(Pyrido[2,3-b][1,5]benzoxazepin-6(5H)-ylcarbonyl)-2-pyridinyl][1,1'biphenyl]-2-carboxamide] | 442 MOsm/kg | 17.0 ml/4 hrs | – | – | – | –
3 | O=C(Nc1ccc(C(=O)N2Cc3cccnc3Oc3ccccc32)c(Cl)c1)c1ccccc1-c1ccccc1 [Example 67, N-[4-(Pyrido[2,3-b][1,5]benzoxazepin-6(5H)-ylcarbonyl)-3-chlorophenyl][1,1'-biphenyl]-2-carboxamide] | 402 MOsm/kg | 21.5 ml/4 hrs | – | – | – | –
4 | O=C(Nc1ccc(C(=O)N2Cc3cccnc3Nc3ccccc32)cc1)c1ccccc1-c1ccccc1 [Example 133, N-[4-(6,11-Dihydropyrido[2,3-b][1,5]benzodiazepin-6(5H)-ylcarbonyl)-phenyl][1.1'-biphenyl]-2-carboxamide] | 234 MOsm/kg | 27.5 ml/4 hrs | – | – | – | –
5 | O=C(Nc1ccc(C(=O)N2Cc3cccnc3Nc3ccccc32)c(Cl)c1)c1ccccc1-c1ccccc1 [Example 134, N-[4-(6,11-Dihydropyrido[2,3-b][1,5]benzodiazepin-6(5H)-ylcarbonyl)-3-chlorophenyl][1,1'-biphenyl]-2-carboxamide] | 333 MOsm/kg | 40.5 ml/4 hrs | 596 MOsm/kg | 18.2 ml/4 hrs | 396 MOsm/kg | 28 ml/4 hrs
6 | Cl.O=C(Nc1ccc(C(=O)N2Cc3cccnc3Nc3ccccc32)cc1)c1ccccc1-c1ccccc1 [Example 135, N-[4-(6,11-Dihydropyrido[2,3-b][1,5]benzodiazepin-6(5H)-ylcarbonyl)-phenyl][1,1'-biphenyl]-2-carboxamide, hydrochloride] | 284 MOsm/kg | 39.5 ml/4 hrs | 526 MOsm/kg | 19.5 ml/4 hrs | 391 MOsm/kg | 26.8 ml/4 hrs
7 | O=C(Nc1ccc(C(=O)N2Cc3cccnc3Nc3ccccc32)cn1)c1ccccc1-c1ccccc1 [Example 176, N-[5-(6,11-Dihydropyrido[2,3-b][1,5]benzodiazepin-6(5H)-ylcarbonyl)-2-pyridinyl][1,1'-biphenyl]-2-carboxamide] | 567 MOsm/kg | 12.8 ml/4 hrs | – | – | – | –
8 | O=C(Nc1ccc(C(=O)N2Cc3ccccc3Nc3ccccc32)c(Cl)c1)c1ccccc1-c1ccccc1 [Example 218, N-[4-[(5,11-Dihydro-10H-dibenz[b,e][1,4]diazepin-10-yl)carbonyl]-3-chlorophenyl][1,1'-biphenyl]-2-carboxamide] | 222 MOsm/kg | 34 ml/4 hrs | – | – | – | –
9 | O=C(Nc1ccc(C(=O)N2Cc3ccccc3Nc3ccccc32)cn1)c1ccccc1-c1ccccc1 [Example 257, N-[5-[(5,11-Dihydro-10H-dibenz[b,e][1,4]diazepin-10-yl)carbonyl]-2-pyridinyl][1,1'-biphenyl]-2-carboxamide] | 317 MOsm/kg | 22.5 ml/4 hrs | – | – | – | –
10 | O=C(Nc1ccc(C(=O)N2Cc3ccccc3Cc3ccccc32)cc1)c1ccccc1-c1ccccc1 [Example 301, N-[4-[(6,11-Dihydro-5H-dibenz[b,e]azepin-5-yl)carbonyl]-phenyl][1,1'-biphenyl]-2-carboxamide] | 363 MOsm/kg | 41.5 ml/4 hrs | – | – | – | –
11 | O=C(Nc1ccc(C(=O)N2Cc3ccccc3Cc3ccccc32)c(Cl)c1)c1ccccc1-c1ccccc1 [Example 302, N-[4-[(6,11-Dihydro-5H-dibenz[b,e]azepin-5-yl)carbonyl]-3-chlorophenyl][1,1'-biphenyl]-2-carboxamide] | 356 MOsm/kg | 40 ml/4 hrs | – | – | – | –
12 | Cc1ccc(F)cc1C(=O)Nc1ccc(C(=O)N2Cc3ccccc3Nc3ncccc32)cn1 [Example 352, N-[5-[(6,11-Dihydro-5H-pyrido[2,3-b][1,4]benzodiazepin-5-yl)carbonyl]-2-pyridinyl]-5-fluoro-2-methylbenzamide] | 779 MOsm/kg | 9.3 ml/4 hrs | – | – | – | –
13 | O=C(Nc1ccc(C(=O)N2CCc3cn[nH]c3-c3ccccc32)cc1)c1ccccc1-c1ccccc1 [Example 396] | 238 MOsm/kg | 21.8 ml/4 hrs | – | – | – | –
14 | O=C(Nc1ccc(C(=O)N2CCc3cn[nH]c3-c3ccccc32)c(Cl)c1)c1ccccc1-c1ccccc1 [Example 397] | 288 MOsm/kg | 29.8 ml/4 hrs | – | – | – | –
15 | O=C(Nc1ccc(C(=O)N2CCc3cn[nH]c3-c3ccccc32)cn1)c1ccccc1-c1ccccc1 [Example 398, N-[5-[(4,5-Dihydropyrazolo[4,3-d][1]benzazepin-6(1H)-yl)carbonyl]-2-pyridinyl][1,1'-biphenyl]-2-carboxamide] | 316 MOsm/kg | 20.5 ml/4 hrs | – | – | – | –
16 | Cc1ccc(F)cc1C(=O)Nc1ccc(C(=O)N2CCc3cn[nH]c3-c3ccccc32)cn1 [Example 399, N-[5-[(4,5-Dihydropyrazolo[4,3-d][1]benzazepin-6(1H)-yl)carbonyl]-2-pyridinyl]-5-fluoro-2-methylbenzamide] | 404 MOsm/kg | 17.0 ml/4 hrs | – | – | – | –
17 | Cc1ccc(F)cc1C(=O)Nc1ccc(C(=O)N2Cc3cscc3Nc3ccccc32)cn1 [Example 400] | 270 MOsm/kg | 24.8 ml/4 hrs | – | – | – | –
18 | O=C(c1ccc(-c2cccs2)cc1)N1Cc2ccccc2Nc2ccccc21 [Example 404, 5,11-Dihydro-10-[4-(2-thienyl)benzoyl]-10H-dibenz[b,e][1,4]diazepine] | 909 MOsm/kg | 6 ml/4 hrs | – | – | – | –
